From ChEMBL document CHEMBL1201862, “PubChem BioAssay data set” (2004) come the findings set out here.

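Growth conditions: 96-well plates. Treatment: test compound, 48 hours, 5 concentrations. Analysis: linear interpolation between bracketing concentrations; unreached endpoints set to highest concentration. GI50: concentration for 50% inhibition of growth.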 Activity calls are given as the source filed them. Rule as the data show it: active = GI50 up to about 1.1 µM and inactive = higher.

Among the test systems are MDA-MB-231; T47D; SK-MEL-5; SF-268; COLO 205; MCF7; UO-31; M14; BT-549; SK-MEL-28; EKVX; SK-MEL-2; RPMI-8226; CCRF-CEM; HCT-116; DU-145; SF-539.
Experiment in all cases: NCI anticancer screen, dose series, 48 h

As for `O=C1c2ccccc2-c2nc(-c3ccccc3)cc3c2c1nc1ccccc13`, the GI50 is 17.6 µM (inactive) with MDA-MB-231; 21.5 µM (inactive) in the experiment with T47D; 2.67 µM (inactive) in the experiment with SK-MEL-5; 19.7 µM (inactive) with SF-268; 25.6 µM (inactive) with COLO 205; 4.51 µM (inactive) in the experiment on MCF7. In addition, the GI50 with UO-31 is 11.4 µM (inactive); with M14 it was 5.55 µM (inactive); in the experiment on BT-549 it was 17.7 µM (inactive); in the experiment with SK-MEL-28, 9.25 µM (inactive); with EKVX, 23.5 µM (inactive); in the experiment with SK-MEL-2 it was 20 µM (inactive). Also, the GI50 was 0.479 µM (active) in the experiment on RPMI-8226, 0.59 µM (active) in the experiment with CCRF-CEM, 10.2 µM (inactive) in the experiment on HCT-116 and 13.9 µM (inactive) in the experiment with DU-145.
With `Brc1cccc(C2(CCCC3(c4cccc(Br)n4)OCCO3)OCCO2)n1`, the GI50 in the experiment on MDA-MB-231 is > 100 µM (inactive); in the experiment on T47D, > 100 µM (inactive); in the experiment with SK-MEL-5, > 100 µM (inactive); in the experiment with SF-268, 21.2 µM (inactive); with SF-539, 39.2 µM (inactive); with COLO 205 it was > 100 µM (inactive). The GI50 in the experiment with MCF7, in the experiment on UO-31, with M14, in the experiment with BT-549, in the experiment with SK-MEL-28 and in the experiment on EKVX was > 100 µM (inactive) throughout. Also, the GI50 in the experiment on SK-MEL-2, in the experiment on RPMI-8226 and with HCT-116 was > 100 µM (inactive) each time.
Consider `O=c1c2cc(-c3ccccc3)sc2nc2n1N=C(c1ccccc1)CS2`, for which the GI50 is 39.8 µM (inactive) in the experiment with MDA-MB-231; 9.55 µM (inactive) in the experiment with T47D; 20.6 µM (inactive) with SK-MEL-5; 24.3 µM (inactive) in the experiment with SF-268; 27.9 µM (inactive) in the experiment with SF-539; 79.3 µM (inactive) in the experiment on COLO 205. Moreover, the GI50 in the experiment with MCF7 is 14.6 µM (inactive); in the experiment with UO-31, 62.2 µM (inactive); in the experiment with BT-549 it was 18.4 µM (inactive); in the experiment with SK-MEL-28 it was 23.6 µM (inactive); in the experiment on EKVX, 24.9 µM (inactive); in the experiment with RPMI-8226, > 100 µM (inactive). Further, the GI50 is 57.7 µM (inactive) with CCRF-CEM, 34.8 µM (inactive) in the experiment with HCT-116 and 94.4 µM (inactive) with DU-145.
As for `COC(=O)c1c(C)[nH]c2c1cc(O)c1nc(C)c(C)nc12`, the GI50 is 47.3 µM (inactive) in the experiment with T47D; 48.5 µM (inactive) in the experiment on SK-MEL-5; 49.2 µM (inactive) with SF-268; 34.3 µM (inactive) with SF-539; > 100 µM (inactive) in the experiment with COLO 205; 50.9 µM (inactive) with MCF7. For the same compound, the GI50 with UO-31 is > 100 µM (inactive); in the experiment on M14, > 100 µM (inactive); in the experiment on BT-549, > 100 µM (inactive); in the experiment with SK-MEL-28 it was > 100 µM (inactive); in the experiment on EKVX it was > 100 µM (inactive); in the experiment with SK-MEL-2, 33 µM (inactive). The GI50 is > 100 µM (inactive) with RPMI-8226, > 100 µM (inactive) with CCRF-CEM, 42.2 µM (inactive) in the experiment with HCT-116 and > 100 µM (inactive) in the experiment on DU-145.
On to `Cn1c(O)c(C2=Nc3ccccc3C2=O)c2ccccc21`, for which the GI50 with MDA-MB-231, in the experiment on T47D, in the experiment on SK-MEL-5, in the experiment on SF-268, with COLO 205 and in the experiment with MCF7 was > 100 µM (inactive) each time. The GI50 in the experiment on UO-31, in the experiment on M14, in the experiment on BT-549, in the experiment with SK-MEL-28, with EKVX and in the experiment on SK-MEL-2 was > 100 µM (inactive) each time. Besides, the GI50 with RPMI-8226, with CCRF-CEM, with HCT-116 and with DU-145 was > 100 µM (inactive) throughout.
As for `NNC(=O)c1ccc(OCc2nc3ccccc3[nH]2)cc1`, the GI50 in the experiment with MDA-MB-231 was > 100 µM (inactive); in the experiment on T47D it was 53.7 µM (inactive); in the experiment with SK-MEL-5 it was 27.9 µM (inactive); in the experiment with SF-268, 89.3 µM (inactive); in the experiment on SF-539, > 100 µM (inactive); in the experiment on COLO 205, 71.4 µM (inactive). Further, the GI50 is 72.6 µM (inactive) in the experiment with MCF7; 48.5 µM (inactive) with UO-31; 53.1 µM (inactive) in the experiment on M14; 52.2 µM (inactive) in the experiment on BT-549; > 100 µM (inactive) with SK-MEL-28; > 100 µM (inactive) with EKVX. Also, the GI50 with SK-MEL-2 was > 100 µM (inactive); in the experiment on RPMI-8226, 55.6 µM (inactive); in the experiment with HCT-116, 29.1 µM (inactive); with DU-145, 94.2 µM (inactive).
As for `O=C1OC2(C(F)(F)F)Oc3ccccc3CN2C12CCCCC2` (configuration not stated), the GI50 in the experiment on MDA-MB-231 was 24.2 µM (inactive); with T47D, 21.8 µM (inactive); with SF-268 it was 35.6 µM (inactive); with SF-539 it was 33.4 µM (inactive); with COLO 205, 18.7 µM (inactive); with MCF7, 39.1 µM (inactive). For the same compound, the GI50 in the experiment on UO-31 is 22.9 µM (inactive); in the experiment on M14, 19.5 µM (inactive); in the experiment on BT-549 it was 28.4 µM (inactive); in the experiment on SK-MEL-28, 55.2 µM (inactive); in the experiment on EKVX, 38.2 µM (inactive); with CCRF-CEM it was 25.1 µM (inactive). Besides, the GI50 in the experiment on HCT-116 is 20.2 µM (inactive); in the experiment with DU-145, 32.3 µM (inactive).
As to `CC[S+]1C2=C(CC(C)(C)CC2=O)[N-]c2ccccc21` (configuration not stated), the GI50 in the experiment with MDA-MB-231 was > 100 µM (inactive); in the experiment with T47D, > 100 µM (inactive); in the experiment with SK-MEL-5, > 100 µM (inactive); in the experiment on SF-268, > 100 µM (inactive); in the experiment on COLO 205, > 100 µM (inactive); in the experiment on MCF7, 24.4 µM (inactive). The GI50 with UO-31, with M14, in the experiment on BT-549, with SK-MEL-28, with EKVX and in the experiment on SK-MEL-2 was > 100 µM (inactive) throughout. For the same compound, the GI50 in the experiment with RPMI-8226, in the experiment on CCRF-CEM, with HCT-116 and with DU-145 was > 100 µM (inactive) in each case.
Consider `CC(C)C(=O)OCC1OC(n2c(Br)nc3c(=O)[nH]c(N)nc32)C(OC(=O)C(C)C)C1OC(=O)C(C)C` (configuration not stated), for which the GI50 in the experiment on MDA-MB-231 is > 100 µM (inactive); with T47D it was 54.8 µM (inactive); with SK-MEL-5 it was > 10 µM (inactive); in the experiment on SF-268, 37.1 µM (inactive); in the experiment with COLO 205 it was 90.4 µM (inactive); in the experiment on MCF7 it was 37.6 µM (inactive). Moreover, the GI50 with UO-31 was > 100 µM (inactive); with M14, > 100 µM (inactive); in the experiment on BT-549 it was 35.5 µM (inactive); in the experiment on EKVX, > 100 µM (inactive); with SK-MEL-2, 68.1 µM (inactive); with HCT-116, 30.1 µM (inactive). The GI50 in the experiment on DU-145 is > 100 µM (inactive).
